Reference: ChEMBL document CHEMBL2375251, “Anticancer activity of novel hybrid molecules containing 5-benzylidene thiazolidine-2,4-dione” (Eur J Med Chem, 2013)
Active and inactive are the calls of the source. No cut-off for these calls is given here.

Legend:
MOLT-3 [1] = assay: Induction of apoptosis in human MOLT3 cells assessed as caspase 3/7-mediated DEVD-pNA cleavage at 1 uM after 6 hrs by colorimetric assay relative to control; assay type: functional
U-937 [2] = assay: Induction of apoptosis in human U937 cells assessed as caspase 3/7-mediated DEVD-pNA cleavage at 1 uM after 6 hrs by colorimetric assay relative to control; assay type: functional
HL-60 [3] = assay: Induction of apoptosis in human HL60 cells assessed as caspase 3/7-mediated DEVD-pNA cleavage at 1 uM after 6 hrs by colorimetric assay relative to control; assay type: functional
MOLT-3 [4] = assay: Induction of apoptosis in human MOLT3 cells assessed as caspase9-mediated LEHD-pNA cleavage at 1 uM after 6 hrs by colorimetric assay; assay type: functional, cell-based
U-937 [5] = assay: Induction of apoptosis in human U937 cells assessed as caspase9-mediated LEHD-pNA cleavage at 1 uM after 6 hrs by colorimetric assay; assay type: functional, cell-based
HL-60 [6] = assay: Induction of apoptosis in human HL60 cells assessed as caspase9-mediated LEHD-pNA cleavage at 1 uM after 6 hrs by colorimetric assay; assay type: functional, cell-based
MOLT-3 [7] = assay: Induction of apoptosis in human MOLT3 cells assessed as caspase 8-mediated IETD-pNA cleavage at 1 uM after 6 hrs by colorimetric assay; assay type: functional, cell-based
U-937 [8] = assay: Induction of apoptosis in human U937 cells assessed as caspase 8-mediated IETD-pNA cleavage at 1 uM after 6 hrs by colorimetric assay; assay type: functional, cell-based
MOLT-3 [9] = assay: Induction of apoptosis in human MOLT3 cells assessed as caspase 3/7-mediated DEVD-pNA cleavage at 1 uM after 6 hrs by colorimetric assay; assay type: functional, cell-based
HL-60 [10] = assay: Induction of apoptosis in human HL60 cells assessed as caspase 8-mediated IETD-pNA cleavage at 1 uM after 6 hrs by colorimetric assay; assay type: functional, cell-based
U-937 [11] = assay: Induction of apoptosis in human U937 cells assessed as caspase 3/7-mediated DEVD-pNA cleavage at 1 uM after 6 hrs by colorimetric assay; assay type: functional, cell-based
HL-60 [12] = assay: Induction of apoptosis in human HL60 cells assessed as caspase 3/7-mediated DEVD-pNA cleavage at 1 uM after 6 hrs by colorimetric assay; assay type: functional, cell-based
MOLT-3 [13] = assay: Induction of apoptosis in human MOLT3 cells assessed as cytochrome c release at 1 uM after 6 hrs by Western blot analysis; assay type: functional, cell-based
U-937 [14] = assay: Induction of apoptosis in human U937 cells assessed as cytochrome c release at 1 uM after 6 hrs by Western blot analysis; assay type: functional, cell-based
HL-60 [15] = assay: Induction of apoptosis in human HL60 cells assessed as cytochrome c release at 1 uM after 6 hrs by Western blot analysis; assay type: functional, cell-based
MOLT-3 [16] = assay: Induction of apoptosis in human MOLT3 cells assessed as caspase-3-mediated PARP hydrolysis at 1 uM after 6 hrs by Western blot analysis; assay type: functional, cell-based
U-937 [17] = assay: Induction of apoptosis in human U937 cells assessed as caspase-3-mediated PARP hydrolysis at 1 uM after 6 hrs by Western blot analysis; assay type: functional, cell-based
HL-60 [18] = assay: Induction of apoptosis in human HL60 cells assessed as caspase-3-mediated PARP hydrolysis at 1 uM after 6 hrs by Western blot analysis; assay type: functional, cell-based
MOLT-3 [19] = assay: Induction of apoptosis in human MOLT3 cells assessed as procaspase-9 activation at 1 uM after 6 hrs by Western blot analysis; assay type: functional, cell-based
U-937 [20] = assay: Induction of apoptosis in human U937 cells assessed as procaspase-9 activation at 1 uM after 6 hrs by Western blot analysis; assay type: functional, cell-based
HL-60 [21] = assay: Induction of apoptosis in human HL60 cells assessed as procaspase-9 activation at 1 uM after 6 hrs by Western blot analysis; assay type: functional, cell-based
MOLT-3 [22] = assay: Induction of apoptosis in human MOLT3 cells assessed as procaspase-8 activation at 1 uM after 6 hrs by Western blot analysis; assay type: functional, cell-based
U-937 [23] = assay: Induction of apoptosis in human U937 cells assessed as procaspase-8 activation at 1 uM after 6 hrs by Western blot analysis; assay type: functional, cell-based
HL-60 [24] = assay: Induction of apoptosis in human HL60 cells assessed as procaspase-8 activation at 1 uM after 6 hrs by Western blot analysis; assay type: functional, cell-based
MOLT-3 [25] = assay: Induction of apoptosis in human MOLT3 cells assessed as procaspase-7 activation at 1 uM after 6 hrs by Western blot analysis; assay type: functional, cell-based
U-937 [26] = assay: Induction of apoptosis in human U937 cells assessed as procaspase-6 activation at 1 uM after 6 hrs by Western blot analysis; assay type: functional, cell-based
HL-60 [27] = assay: Induction of apoptosis in human HL60 cells assessed as procaspase-6 activation at 1 uM after 6 hrs by Western blot analysis; assay type: functional, cell-based
MOLT-3 [28] = assay: Induction of apoptosis in human MOLT3 cells assessed as procaspase-3 activation at 1 uM after 6 hrs by Western blot analysis; assay type: functional, cell-based
U-937 [29] = assay: Induction of apoptosis in human U937 cells assessed as procaspase-3 activation at 1 uM after 6 hrs by Western blot analysis; assay type: functional, cell-based
HL-60 [30] = assay: Induction of apoptosis in human HL60 cells assessed as procaspase-3 activation at 1 uM after 6 hrs by Western blot analysis; assay type: functional, cell-based
HL-60 [31] = assay: Induction of apoptosis in human HL60 cells assessed as hypodiploid DNA content at 3 uM after 6 hrs by propidium iodide staining-based flow cytometry relative to control; assay type: functional
MOLT-3 [32] = assay: Induction of apoptosis in human MOLT3 cells assessed as chromatin hydrolysis at 1 uM after 6 hrs by agarose gel electrophoresis; assay type: functional, cell-based
U-937 [33] = assay: Induction of apoptosis in human U937 cells assessed as chromatin hydrolysis at 1 uM after 6 hrs by agarose gel electrophoresis; assay type: functional, cell-based
HL-60 [34] = assay: Induction of apoptosis in human HL60 cells assessed as chromatin hydrolysis at 1 uM after 6 hrs by agarose gel electrophoresis; assay type: functional, cell-based
U-937 [35] = assay: Induction of apoptosis in human U937 cells assessed as appearance of apoptotic bodies at 1 uM after 6 hrs by Hoechst 33258 staining based fluorescence microscopy; assay type: functional, cell-based
U-937 [36] = assay: Induction of apoptosis in human U937 cells assessed as chromatin condensation at 1 uM after 6 hrs by Hoechst 33258 staining based fluorescence microscopy; assay type: functional, cell-based
HL-60 [37] = assay: Induction of apoptosis in human HL60 cells assessed as appearance of apoptotic bodies at 1 uM after 6 hrs by Hoechst 33258 staining based fluorescence microscopy; assay type: functional, cell-based
HL-60 [38] = assay: Induction of apoptosis in human HL60 cells assessed as chromatin condensation at 1 uM after 6 hrs by Hoechst 33258 staining based fluorescence microscopy; assay type: functional, cell-based
MOLT-3 [39] = assay: Cytotoxicity against human MOLT3 cells after 4 hrs by MTT assay; assay type: functional, cell-based
U-937 [40] = assay: Cytotoxicity against human U937 cells after 4 hrs by MTT assay; assay type: functional, cell-based
HL-60 [41] = assay: Cytotoxicity against human HL60 cells after 4 hrs by MTT assay; assay type: functional, cell-based
HeLa = assay: Cytotoxicity against human HeLa cells after 4 days by Coulter counter analysis; assay type: functional, cell-based; settings: 96 h
CCRF-CEM = assay: Cytotoxicity against human CEM cells after 3 days by Coulter counter analysis; assay type: functional, cell-based; settings: 72 h
FM3A = assay: Cytotoxicity against mouse FM3A cells after 2 days by Coulter counter analysis; assay type: functional, cell-based; settings: 48 h
L1210 = assay: Cytotoxicity against mouse L1210 cells after 2 days by Coulter counter analysis; assay type: functional, cell-based; settings: L1210, 48 h
U-937 [42] = assay: Induction of apoptosis in human U937 cells assessed as procaspase-7 activation at 1 uM after 6 hrs by Western blot analysis; assay type: functional, cell-based
HL-60 [43] = assay: Induction of apoptosis in human HL60 cells assessed as procaspase-7 activation at 1 uM after 6 hrs by Western blot analysis; assay type: functional, cell-based
MOLT-3 [44] = assay: Induction of apoptosis in human MOLT3 cells assessed as procaspase-6 activation at 1 uM after 6 hrs by Western blot analysis; assay type: functional, cell-based
U-937 [45] = assay: Induction of apoptosis in human U937 cells assessed as hypodiploid DNA content at 3 uM after 6 hrs by propidium iodide staining-based flow cytometry relative to control; assay type: functional

In the case of C=C(Br)C(=O)Nc1cccc(/C=C2\SC(=O)N(Cc3ccc(F)cc3)C2=O)c1, the “fold change (FC)” value (MOLT-3 [1]) is reported as >2, the “fold change (FC)” value (U-937 [2]) is reported as >10 and the “fold change (FC)” value (HL-60 [3]) is reported as >5. For the same compound, the Activity (MOLT-3 [4]) was “Active”, the Activity (U-937 [5]) was “Active” and the Activity (HL-60 [6]) was “Active”. For the same compound, the Activity (MOLT-3 [7]) was “Active”, the Activity (U-937 [8]) was “Active” and the Activity (MOLT-3 [9]) was “Active”. The Activity (HL-60 [10]) was “Active”, the Activity (U-937 [11]) was “Active” and the Activity (HL-60 [12]) was “Active”. For the same compound, the Activity (MOLT-3 [13]) was “Active”, the Activity (U-937 [14]) was “Active” and the Activity (HL-60 [15]) was “Active”. The Activity (MOLT-3 [16]) was “Active”, the Activity (U-937 [17]) was “Active” and the Activity (HL-60 [18]) was “Active”. For the same compound, the Activity (MOLT-3 [19]) was “Active”, the Activity (U-937 [20]) was “Active” and the Activity (HL-60 [21]) was “Active”. The Activity (MOLT-3 [22]) was “Active”, the Activity (U-937 [23]) was “Active” and the Activity (HL-60 [24]) was “Active”. For the same compound, the Activity (MOLT-3 [25]) was “Active”, the Activity (U-937 [26]) was “Active” and the Activity (HL-60 [27]) was “Active”. For the same compound, the Activity (MOLT-3 [28]) was “Active”, the Activity (U-937 [29]) was “Active” and the Activity (HL-60 [30]) was “Active”. For the same compound, the “fold change (FC)” value (HL-60 [31]) was 12, the Activity (MOLT-3 [32]) was “inactive” and the Activity (U-937 [33]) was “Active”. For the same compound, the Activity (HL-60 [34]) was “Active”, the Activity (U-937 [35]) was “Active” and the Activity (U-937 [36]) was “Active”. For the same compound, the Activity (HL-60 [37]) was “Active”, the Activity (HL-60 [38]) was “Active” and the Activity (MOLT-3 [39]) was “Dose-dependent effect”. The IC50 (MOLT-3 [39]; MOLT-3, 4 h) was 640 nM, the Activity (U-937 [40]) was “Dose-dependent effect” and the IC50 (U-937 [40]; U-937, 4 h) was 530 nM. The Activity (HL-60 [41]) was “Dose-dependent effect”, the IC50 (HL-60 [41]; HL-60, 4 h) was 770 nM and the IC50 (HeLa) was 800 nM. The IC50 (CCRF-CEM) was 680 nM, the IC50 (FM3A) was 920 nM and the IC50 (L1210) was 680 nM. For the same compound, the Activity (U-937 [42]) was “Active”, the Activity (HL-60 [43]) was “Active” and the Activity (MOLT-3 [44]) was “Active”. The “fold change (FC)” value (U-937 [45]) was 4.
